According to ChEMBL document CHEMBL3259671, “From virtual to clinical: The discovery of PGN-1531, a novel antagonist of the prostanoid EP4 receptor” (Bioorg Med Chem Lett, 2014):
Converted amounts (≈) assume the structure as drawn.

Legend:
[1] = Solubility of the compound in 0.1 M phosphate buffer/[…] KCl at pH 7.4 after 24 hrs; type: physicochemical
[2] = Intrinsic clearance in human hepatocytes; type: ADME, cell-based, Hepatocyte; conditions: read-out: CLH
[3] = Intrinsic clearance in rat hepatocytes; type: ADME, cell-based, Hepatocyte; conditions: read-out: CLH
[4] = Half life in po dosed rat; type: ADME, organism-based; conditions: in vivo
[5] = Bioavailability in rat; type: ADME, organism-based; conditions: in vivo
[6] = Permeability across human Caco2 cells; type: ADME, cell-based; conditions: Caco-2, read-out: permeability

solubility at 24 h [1]	further results	Compound
2 µg/mL (≈ 4.47 µM)		Cc1oc(C(=O)NS(=O)(=O)c2ccccc2)cc1COc1ccc(-c2ccccc2)cc1
11 µg/mL (≈ 23 µM)		COc1ccc(-c2ccc(OCc3cc(C(=O)NS(=O)(=O)c4ccccc4)oc3C)cc2)cc1
< 0.6 µg/mL		Cc1oc(C(=O)NS(=O)(=O)c2ccccc2)cc1COc1ccc(-c2ccc(OC(F)F)cc2)cc1
30 µg/mL (≈ 62.7 µM)		COc1ccc(-c2ccc(OCc3cc(C(=O)NS(=O)(=O)c4ccccc4)oc3C)cc2)nc1
7 µg/mL (≈ 15.8 µM)		CCCS(=O)(=O)NC(=O)c1cc(COc2ccc(-c3ccc(OC)cc3)cc2)c(C)o1
20 µg/mL (≈ 40.5 µM)		COc1ccc(-c2ccc(OCc3cc(C(=O)NS(=O)(=O)c4ccc(O)cc4)oc3C)cc2)cc1
0.2 µg/mL (≈ 0.403 µM)		COc1ccc(-c2ccc(OCc3cc(C(=O)NS(=O)(=O)c4c(C)noc4C)oc3C)cc2)cc1
20 µg/mL (≈ 40.7 µM)		COc1ccc(-c2ccc(OCc3cc(C(=O)NS(=O)(=O)c4ccccc4)oc3C)cc2)c(C)c1
8 µg/mL (≈ 16.8 µM)		COc1ccccc1-c1ccc(OCc2cc(C(=O)NS(=O)(=O)c3ccccc3)oc2C)cc1
< 0.6 µg/mL		COc1ccc(-c2ccc(OCc3cc(C(=O)NS(=O)(=O)c4ccc(CN)cc4)oc3C)cc2)cc1
10 µg/mL (≈ 22.5 µM)		COc1ccc(-c2ccc(OCc3cc(C(=O)NS(=O)(=O)N(C)C)oc3C)cc2)cc1
5 µg/mL (≈ 10.2 µM)		COc1ccc(-c2ccc(OCc3cc(C(=O)NS(=O)(=O)c4ccc(C)cn4)oc3C)cc2)cc1
20 µg/mL (≈ 37.8 µM)		COc1ccc(-c2ccc(OCc3cc(C(=O)NS(=O)(=O)CCCN4CCOCC4)oc3C)cc2)cc1
300 µg/mL (≈ 672 µM)		Cc1oc(C(=O)NS(=O)(=O)c2ccccc2)cc1CNc1ccc(-c2ccccc2)cc1
20 µg/mL (≈ 43.4 µM)		Cc1ccccc1S(=O)(=O)NC(=O)c1cc(CNc2ccc(-c3ccccc3)cc2)c(C)o1
< 0.6 µg/mL		Cc1noc(C)c1S(=O)(=O)NC(=O)c1cc(COc2ccc(-c3ccc(OC(F)F)cc3)cc2)c(C)o1
20 µg/mL (≈ 38 µM)		Cc1ccccc1S(=O)(=O)NC(=O)c1cc(CNc2ccc(-c3ccc(OC(F)F)cc3)cc2)c(C)o1
90 µg/mL (≈ 181 µM)		COc1ccc(-c2ccc(OCc3cc(C(=O)NS(=O)(=O)c4c(C)noc4C)oc3C)cc2)nc1
200 µg/mL (≈ 392 µM)		COc1ccc(-c2ccc(OCc3cc(C(=O)NS(=O)(=O)c4c(C)noc4C)oc3C)cc2)c(C)c1
10 µg/mL (≈ 20.3 µM)		COc1ccc(-c2ccc(OCc3cc(C(=O)NS(=O)(=O)c4ccccc4C)oc3C)cc2)nc1 [BGC-20-1531 FREE BASE]
	CLint scaled [2]: 6.5 mL/min/kg; CLint scaled [3]: 2.7 mL/min/kg; half-life [4]: 2.3 h; bioavailability [5]: 84%; Papp [6]: 14.5 ×10⁻⁶ cm/s	COc1ccc(-c2ccc(OCc3cc(C(=O)[N-]S(=O)(=O)c4ccccc4C)oc3C)cc2)nc1.[Na+] [BGC-20-1531]
